Measurements reported in the supplement of paper PMC10307832.

How the values were obtained:
Experiment in all cases: relative viability (nuclei count vs DMSO), 5 days (fraction); higher = more cells survive
Cediranib + Crizotinib = compound: COc1cc2c(Oc3ccc4[nH]c(C)cc4c3F)ncnc2cc1OCCCN1CCCC1 [Cediranib] + C[C@@H](Oc1cc(-c2cnn(C3CCNCC3)c2)cnc1N)c1c(Cl)ccc(F)c1Cl [Crizotinib] (partner 1 µM)
Outline: (§1)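 The day after seeding in 1536-well plates, lung cancer cell lines were treated by pin tool with a single drug, or with a fixed anchor-drug dose together with five library-drug doses (not always all listed) in √10 steps. After 5 days, a combined fix-and-stain solution (final 0.05% Triton X-100, 1% formaldehyde, 1 ug/ml Hoechst) was added. Nuclei counted on 4× images gave relative viability as treated counts over vehicle counts, reported as the median of duplicate plates.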

Decitabine + AZD7762 = compound: Nc1ncn([C@H]2C[C@H](O)[C@@H](CO)O2)c(=O)n1 [Decitabine] + NC(=O)Nc1cc(-c2cccc(F)c2)sc1C(=O)N[C@H]1CCCNC1 [AZD7762] (partner 0.2 µM)
Outline: as §1

Decitabine + Pictilisib = compound: Nc1ncn([C@H]2C[C@H](O)[C@@H](CO)O2)c(=O)n1 [Decitabine] + CS(=O)(=O)N1CCN(Cc2cc3nc(-c4cccc5[nH]ncc45)nc(N4CCOCC4)c3s2)CC1 [Pictilisib] (partner 1 µM)
Outline: as §1

[1] = compound: O=C(C[C@H]1NCCC[C@@H]1O)Cn1cnc2cc(Br)c(Cl)cc2c1=O (racemic) [Halofuginone] + Cc1cc(Nc2cc(N3CCN(C)CC3)nc(Sc3ccc(NC(=O)C4CC4)cc3)n2)n[nH]1 [Tozasertib] (partner 0.1 µM)
Outline: as §1

HCC-78
relative viability (Cediranib + Crizotinib; first compound 0.04 µM): 0.362
relative viability (Cediranib + Crizotinib; first compound 0.1265 µM): 0.417
relative viability (Cediranib + Crizotinib; first compound 0.4 µM): 0.301
relative viability (Cediranib + Crizotinib; first compound 1.265 µM): 0.376
relative viability (Cediranib + Crizotinib; first compound 4 µM): 0.284
relative viability (Decitabine + AZD7762; first compound 0.04 µM): 0.549
relative viability (Decitabine + AZD7762; first compound 0.1265 µM): 0.605
relative viability (Decitabine + AZD7762; first compound 0.4 µM): 0.565
relative viability (Decitabine + AZD7762; first compound 1.265 µM): 0.474
relative viability (Decitabine + AZD7762; first compound 4 µM): 0.466
relative viability (Decitabine + Pictilisib; first compound 0.04 µM): 0.233
relative viability (Decitabine + Pictilisib; first compound 0.1265 µM): 0.241
relative viability (Decitabine + Pictilisib; first compound 0.4 µM): 0.229
relative viability (Decitabine + Pictilisib; first compound 1.265 µM): 0.21
relative viability (Decitabine + Pictilisib; first compound 4 µM): 0.228
relative viability ([1]; first compound 0.001 µM): 0.491
relative viability ([1]; first compound 0.003162 µM): 0.422
relative viability ([1]; first compound 0.01 µM): 0.503
relative viability ([1]; first compound 0.03162 µM): 0.347
relative viability ([1]; first compound 0.1 µM): 0.427

HCC-366
relative viability (Cediranib + Crizotinib; first compound 0.04 µM): 0.629
relative viability (Cediranib + Crizotinib; first compound 0.1265 µM): 0.574
relative viability (Cediranib + Crizotinib; first compound 0.4 µM): 0.423
relative viability (Cediranib + Crizotinib; first compound 1.265 µM): 0.466
relative viability (Cediranib + Crizotinib; first compound 4 µM): 0.788
relative viability (Decitabine + AZD7762; first compound 0.04 µM): 0.208
relative viability (Decitabine + AZD7762; first compound 0.1265 µM): 0.276
relative viability (Decitabine + AZD7762; first compound 0.4 µM): 0.114
relative viability (Decitabine + AZD7762; first compound 1.265 µM): 0.0535
relative viability (Decitabine + AZD7762; first compound 4 µM): 0.0424
relative viability (Decitabine + Pictilisib; first compound 0.04 µM): 0.221
relative viability (Decitabine + Pictilisib; first compound 0.1265 µM): 0.221
relative viability (Decitabine + Pictilisib; first compound 0.4 µM): 0.229
relative viability (Decitabine + Pictilisib; first compound 1.265 µM): 0.11
relative viability (Decitabine + Pictilisib; first compound 4 µM): 0.0886
relative viability ([1]; first compound 0.001 µM): 0.142
relative viability ([1]; first compound 0.003162 µM): 0.115
relative viability ([1]; first compound 0.01 µM): 0.0951
relative viability ([1]; first compound 0.03162 µM): 0.104
relative viability ([1]; first compound 0.1 µM): 0.0283

HCC-827
relative viability (Cediranib + Crizotinib; first compound 0.04 µM): 0.931
relative viability (Cediranib + Crizotinib; first compound 0.4 µM): 0.869
relative viability (Cediranib + Crizotinib; first compound 1.265 µM): 0.951
relative viability (Cediranib + Crizotinib; first compound 4 µM): 0.976
relative viability (Decitabine + AZD7762; first compound 0.04 µM): 0.113
relative viability (Decitabine + AZD7762; first compound 0.1265 µM): 0.169
relative viability (Decitabine + AZD7762; first compound 0.4 µM): 0.188
relative viability (Decitabine + AZD7762; first compound 1.265 µM): 0.173
relative viability (Decitabine + AZD7762; first compound 4 µM): 0.193
relative viability (Decitabine + Pictilisib; first compound 0.04 µM): 0.511
relative viability (Decitabine + Pictilisib; first compound 0.1265 µM): 0.63
relative viability (Decitabine + Pictilisib; first compound 0.4 µM): 0.618
relative viability (Decitabine + Pictilisib; first compound 1.265 µM): 0.505
relative viability (Decitabine + Pictilisib; first compound 4 µM): 0.62
relative viability ([1]; first compound 0.001 µM): 0.419
relative viability ([1]; first compound 0.003162 µM): 0.39
relative viability ([1]; first compound 0.01 µM): 0.427
relative viability ([1]; first compound 0.03162 µM): 0.398
relative viability ([1]; first compound 0.1 µM): 0.456

IA-LM
relative viability (Cediranib + Crizotinib; first compound 0.04 µM): 0.775
relative viability (Cediranib + Crizotinib; first compound 0.1265 µM): 1.28
relative viability (Cediranib + Crizotinib; first compound 0.4 µM): 0.718
relative viability (Cediranib + Crizotinib; first compound 1.265 µM): 0.828
relative viability (Cediranib + Crizotinib; first compound 4 µM): 0.992
relative viability (Decitabine + Pictilisib; first compound 0.04 µM): 0.253
relative viability (Decitabine + Pictilisib; first compound 0.1265 µM): 0.269
relative viability (Decitabine + Pictilisib; first compound 0.4 µM): 0.163
relative viability (Decitabine + Pictilisib; first compound 1.265 µM): 0.147
relative viability (Decitabine + Pictilisib; first compound 4 µM): 0.0969

NCI-H520
relative viability (Cediranib + Crizotinib; first compound 0.04 µM): 0.93
relative viability (Cediranib + Crizotinib; first compound 0.4 µM): 0.665
relative viability (Cediranib + Crizotinib; first compound 1.265 µM): 0.801
relative viability (Cediranib + Crizotinib; first compound 4 µM): 0.598
relative viability (Decitabine + Pictilisib; first compound 0.04 µM): 0.315
relative viability (Decitabine + Pictilisib; first compound 0.1265 µM): 0.271
relative viability (Decitabine + Pictilisib; first compound 0.4 µM): 0.241
relative viability (Decitabine + Pictilisib; first compound 1.265 µM): 0.222
relative viability (Decitabine + Pictilisib; first compound 4 µM): 0.198
relative viability ([1]; first compound 0.001 µM): 0.457
relative viability ([1]; first compound 0.003162 µM): 0.457
relative viability ([1]; first compound 0.01 µM): 0.461
relative viability ([1]; first compound 0.03162 µM): 0.467
relative viability ([1]; first compound 0.1 µM): 0.322

NCI-H522
relative viability (Decitabine + AZD7762; first compound 0.04 µM): 0.819
relative viability (Decitabine + AZD7762; first compound 0.1265 µM): 0.692
relative viability (Decitabine + AZD7762; first compound 0.4 µM): 0.571
relative viability (Decitabine + AZD7762; first compound 1.265 µM): 0.567
relative viability (Decitabine + AZD7762; first compound 4 µM): 0.591
relative viability ([1]; first compound 0.001 µM): 0.528
relative viability ([1]; first compound 0.003162 µM): 0.566
relative viability ([1]; first compound 0.01 µM): 0.572
relative viability ([1]; first compound 0.03162 µM): 0.512
relative viability ([1]; first compound 0.1 µM): 0.491

NCI-H661
relative viability (Cediranib + Crizotinib; first compound 0.04 µM): 0.964
relative viability (Cediranib + Crizotinib; first compound 0.1265 µM): 0.922
relative viability (Cediranib + Crizotinib; first compound 0.4 µM): 0.935
relative viability (Cediranib + Crizotinib; first compound 1.265 µM): 1.02
relative viability (Cediranib + Crizotinib; first compound 4 µM): 1.04
relative viability (Decitabine + Pictilisib; first compound 0.04 µM): 0.346
relative viability (Decitabine + Pictilisib; first compound 0.1265 µM): 0.344
relative viability (Decitabine + Pictilisib; first compound 0.4 µM): 0.372
relative viability (Decitabine + Pictilisib; first compound 1.265 µM): 0.288
relative viability (Decitabine + Pictilisib; first compound 4 µM): 0.242
relative viability ([1]; first compound 0.001 µM): 0.365
relative viability ([1]; first compound 0.003162 µM): 0.35
relative viability ([1]; first compound 0.01 µM): 0.322
relative viability ([1]; first compound 0.03162 µM): 0.33
relative viability ([1]; first compound 0.1 µM): 0.391

NCI-H1299
relative viability (Cediranib + Crizotinib; first compound 0.04 µM): 0.982
relative viability (Cediranib + Crizotinib; first compound 0.1265 µM): 0.945
relative viability (Cediranib + Crizotinib; first compound 0.4 µM): 0.957
relative viability (Cediranib + Crizotinib; first compound 1.265 µM): 0.92
relative viability (Cediranib + Crizotinib; first compound 4 µM): 0.929
relative viability (Decitabine + Pictilisib; first compound 0.04 µM): 0.836
relative viability (Decitabine + Pictilisib; first compound 0.1265 µM): 0.881
relative viability (Decitabine + Pictilisib; first compound 0.4 µM): 0.829
relative viability (Decitabine + Pictilisib; first compound 1.265 µM): 0.619
relative viability (Decitabine + Pictilisib; first compound 4 µM): 0.505

NCI-H1395
relative viability (Decitabine + AZD7762; first compound 0.04 µM): 0.379
relative viability (Decitabine + AZD7762; first compound 0.1265 µM): 0.39
relative viability (Decitabine + AZD7762; first compound 0.4 µM): 0.446
relative viability (Decitabine + AZD7762; first compound 1.265 µM): 0.391
relative viability (Decitabine + AZD7762; first compound 4 µM): 0.348
relative viability (Decitabine + Pictilisib; first compound 0.04 µM): 0.57
relative viability (Decitabine + Pictilisib; first compound 0.1265 µM): 0.579
relative viability (Decitabine + Pictilisib; first compound 0.4 µM): 0.522
relative viability (Decitabine + Pictilisib; first compound 1.265 µM): 0.417
relative viability (Decitabine + Pictilisib; first compound 4 µM): 0.458
relative viability ([1]; first compound 0.001 µM): 0.893
relative viability ([1]; first compound 0.003162 µM): 0.72
relative viability ([1]; first compound 0.01 µM): 0.797
relative viability ([1]; first compound 0.03162 µM): 0.769
relative viability ([1]; first compound 0.1 µM): 0.656

NCI-H1563
relative viability (Cediranib + Crizotinib; first compound 0.04 µM): 0.919
relative viability (Cediranib + Crizotinib; first compound 0.1265 µM): 0.866
relative viability (Cediranib + Crizotinib; first compound 0.4 µM): 0.854
relative viability (Cediranib + Crizotinib; first compound 1.265 µM): 0.833
relative viability (Cediranib + Crizotinib; first compound 4 µM): 0.894
relative viability (Decitabine + Pictilisib; first compound 0.04 µM): 0.682
relative viability (Decitabine + Pictilisib; first compound 0.1265 µM): 0.63
relative viability (Decitabine + Pictilisib; first compound 0.4 µM): 0.779
relative viability (Decitabine + Pictilisib; first compound 1.265 µM): 0.693
relative viability (Decitabine + Pictilisib; first compound 4 µM): 0.635

NCI-H1623
relative viability ([1]; first compound 0.001 µM): 0.487
relative viability ([1]; first compound 0.003162 µM): 0.44
relative viability ([1]; first compound 0.01 µM): 0.459
relative viability ([1]; first compound 0.03162 µM): 0.459
relative viability ([1]; first compound 0.1 µM): 0.426

NCI-H1648
relative viability (Decitabine + AZD7762; first compound 0.04 µM): 0.692
relative viability (Decitabine + AZD7762; first compound 0.1265 µM): 0.672
relative viability (Decitabine + AZD7762; first compound 0.4 µM): 0.469
relative viability (Decitabine + AZD7762; first compound 1.265 µM): 0.448
relative viability (Decitabine + AZD7762; first compound 4 µM): 0.428
relative viability ([1]; first compound 0.001 µM): 0.763
relative viability ([1]; first compound 0.003162 µM): 0.526
relative viability ([1]; first compound 0.01 µM): 0.643
relative viability ([1]; first compound 0.03162 µM): 0.44
relative viability ([1]; first compound 0.1 µM): 0.4
